Assay results as given in patent US4478833A, “Trisubstituted pyrimido[5,4-d]pyrimidines and salts thereof” (Dr. Karl Thomae Gesellschaft mit beschrankter Haftung, priority 1980, dated 1984).
Read-outs that look alike come from different tables or passages of the source.

Tests used:
[1] = tested on: thrombocyte aggregation (platelet-rich plasma of healthy test persons); assay: Collagen-induced thrombocyte (platelet) aggregation in platelet-rich plasma, method of Born and Cross; assay type: cell-based, human; conditions: sodium citrate, 10 minutes incubation at 37° C., read-out: EC50 (50% change in optical density, inhibition of collagen-induced aggregation)
Method: Thrombocyte aggregation was measured according to the method of Born and Cross [J. Physiol. 170, 397 (1964)]in platelet-rich plasma of healthy test persons. To inhibit coagulation, the blood was mixed with sodium citrate in a volume ration of 1:10.
After addition of the aggregation-inducing substance, the rate of decrease in optical density of the platelet suspension is measured photometrically and recorded. The rate of aggregation was determined from the angle of inclination of the density curve. The point on the curve at which there was the greatest translucence served for calculating the optical density.
The quantity of collagen was chosen as small as possible, but sufficient so that an irreversible reaction was obtained. Commercial collagen of Hormonchemie, Munich, was used. Before the collagen was added, the plasma was incubated for 10 minutes with the test substance at 37° C.
An EC50 corresponding to a 50% change in the optical density with respect to aggregation inhibition was calculated graphically from the measurement values obtained.

mice = assay: Acute toxicity in mice after oral administration; assay type: in vivo; conditions: 250 mg/kg p.o., observation time 14 days
Method: (§1) The acute toxicity of the test compounds was determined on groups of 6 to 10 mice after oral administration of a dose of 250 mg/kg (observation time: 14 days). For this purpose, the substances were suspended in 2% methyl cellulose, some water was subsequently added and the test substance was administered to the conscious animals by esophageal tube.

[2] = Acute toxicity in mice after oral administration; assay type: in vivo; conditions: mouse, in vivo, po, dose of 250 mg/kg, observation time 14 days
Method: as §1

SMILES | EC50 ([1]; Homo sapiens, 10 min) | animals died (out of animals tested) (mice) | LD50 at 336 h [2] | EC50 [1]
CCCSc1ncnc2c(N3CC[S+]([O-])CC3)nc(NCCO)nc12 [A, 2-(2-Hydroxyethyl-amino)-4-(1-oxido-thiomorpholino)-8-propylthio-pyrimido[5,4-d]pyrimidine] | 310 nM | 0 out of 6 | > 250 mg/kg | –
[O-][S+]1CCN(c2nc(NCCO)nc3c(SC4CCCCC4)ncnc23)CC1 [B, 8-Cyclohexylthio-2-(2-hydroxyethyl-amino)-4-(1-oxido-thiomorpholino)-pyrimido[5,4-d]pyrimidine] | 48 nM | 0 out of 10 | > 250 mg/kg | –
[O-][S+]1CCN(c2nc(NCCO)nc3c(SCc4ccccc4)ncnc23)CC1 [C, 8-Benzylthio-2-(2-hydroxyethyl-amino)-4-(1-oxido-thiomorpholino)-pyrimido[5,4-d]pyrimidine] | 21 nM | 0 out of 10 | > 250 mg/kg | –
COCCN(CCO)c1nc(N2CC[S+]([O-])CC2)c2ncnc(SCc3ccccc3)c2n1 [Compound E, 8-Benzylthio-2-[N-(2-hydroxy-ethyl)-N-(2-methoxyethyl)-amino]-4-(1-oxido-thiomorpholino)-pyrimido[5,4-d]pyrimidine] | 52 nM | 0 out of 10 | > 250 mg/kg | –
[O-][S+]1CCN(c2nc(N(CCO)CCO)nc3c(SCc4ccccc4)ncnc23)CC1 [D, 8-Benzylthio-2-diethanolamino-4-(1-oxido-thiomorpholino)pyrimido[5,4-d]pyrimidine] | 62 nM | 0 out of 10 | > 250 mg/kg | –
CSc1ccc(C(C)Sc2ncnc3c(N4CC[S+]([O-])CC4)nc(NCCO)nc23)cc1 (stereo not drawn) [F, 2-(2-Hydroxyethyl-amino)-8-(α-methyl-4-methylthiobenzylthio)-4-(1-oxido-thiomorpholino)-pyrimido[5,4-d]pyrimidine] | 29 nM | 0 out of 6 | > 250 mg/kg | –
[O-][S+]1CCN(c2nc(NCCO)nc3c(SCc4ccco4)ncnc23)CC1 [G, 8-Furfurylthio-2-(2-hydroxyethyl-amino)-4-(1-oxidothiomorpholino)-pyrimido[5,4-d]pyrimidine] | 52 nM | 0 out of 6 | > 250 mg/kg | –
CCCCN(CC)c1ncnc2c(N3CC[S+]([O-])CC3)nc(NCCO)nc12 [H, 8-(N-Ethyl-butylamino)-2-(2-hydroxyethyl-amino)-4-(1-oxidothiomorpholino)-pyrimido[5,4-d]pyrimidine] | 300 nM | 0 out of 6 | > 250 mg/kg | –
CC(Nc1ncnc2c(N3CC[S+]([O-])CC3)nc(NCCO)nc12)c1ccccc1 [I, 2-(2-Hydroxyethyl-amino)-4-(1-oxido-thiomorpholino)-8-(L-1-phenylethyl-amino)-pyrimido[5,4-d]pyrimidine] | – | – | – | 28 nM
[O-][S+]1CCN(c2nc(NCCO)nc3c(NCc4ccc(Cl)cc4)ncnc23)CC1 [K, 8-(4-Chlorobenzyl-amino)-2-(2-hydroxyethyl-amino)-4-(1-oxido-thiomorpholino)-pyrimido[5,4-d]pyrimidine] | 280 nM | 0 out of 10 | > 250 mg/kg | –
[O-][S+]1CCN(c2nc(N(CCO)CCO)nc3c(N4CCCCC4)ncnc23)CC1 [L, 2-Diethanolamino-4-(1-oxido-thiomorpholino)-8-piperidino-pyrimido[5,4-d]pyrimidine] | 690 nM | 0 out of 10 | > 250 mg/kg | –
CC(C)CCOc1ncnc2c(N3CC[S+]([O-])CC3)nc(N(CCO)CCO)nc12 [M, 2-Diethanolamino-8-isopentoxy-4-(1-oxido-thiomorpholino)-pyrimido[5,4-d]pyrimidine] | 460 nM | 0 out of 6 | > 250 mg/kg | –
[O-][S+]1CCN(c2nc(N(CCO)CCO)nc3c(OCc4ccccc4)ncnc23)CC1 [N, 8-Benzyloxy-2-diethanolamino-4-(1-oxido-thiomorpholino)-pyrimido[5,4-d]pyrimidine] | 230 nM | 0 out of 10 | > 250 mg/kg | –
COCCN(CCO)c1nc(N2CC[S+]([O-])CC2)c2ncnc(OCc3ccccc3)c2n1 [O, 8-Benzyloxy-2-[N-(2-hydroxy-ethyl)-N-(2-methoxy-ethyl)amino]-4-(1-oxido-thiomorpholino)-pyrimido[5,4-d]pyrimidine] | 300 nM | 0 out of 6 | > 250 mg/kg | –
[O-][S+]1CCN(c2nc(N(CCO)CCO)nc3c(OCCCc4ccccc4)ncnc23)CC1 [P, 2-Diethanolamino-4-(1-oxido-thiomorpholino)-8-(3-phenylpropoxy)-pyrimido[5,4-d]pyrimidine] | 360 nM | 0 out of 6 | > 250 mg/kg | –
